Data from US20090076130A1, “COMPOUNDS FOR THE INHIBITION OF HISTONE DEACETYLASE” (NATUREWISE BIOTECH & MEDICALS CORPORATION, priority 2007, published 2009).

Key:
cyclin D1 = conditions: MCF-7 breast cancer cells; cited from earlier work
SMN2 protein = conditions: fibroblast cells derived from SMA patients, 64 hours of treatment; cited from earlier work
[1] = tested on: human giloblastoma DBTRG-05MG cancer cells; assay: Growth and morphology of human giloblastoma DBTRG-05MG cancer cells; type: cell-based; conditions: NBM-HD-1 2.5, 5, 10 μg/mL or 4 mM sodium butyrate, 72 hours
Procedure: The human giloblastoma DBTRG-05MG cancer cells were cultured in RPMI medium 1640 (Gibco) supplemented with penicillin G, streptomycin sulphate, 0.5 mM of L-glutamine and 10% fetal bovine serum (FBS; Gibco), 100 mh/L sodium pyruvate (Gibco), and 1% NEAA (Gibco) at 37° C., 5% CO2 and 95% relative humidity. For these experiments, the cells were seeded at a density of 3×10^5 per well of 6-well plates. After 24 hours, the cells were treated with different concentrations of NBM-HD-1 and 4 mM sodium butyrate. The cells were observed and counted after 72 hours. […] In 05MG cells (FIG. 7(A)), after incubation with 2.5 μg/mL (FIG. 7(A)-b), 5 μg/mL (FIG. 7(A)-c) and 10 μg/mL (FIG. 7(A)-d) of NBM-HD-1 for 72 hours, the density of the cells reduced dramatically in comparison with that of the control group (FIG. 7(A)-a). The 05MG cells in the experimental group also changed to become longer than those in the control group.

acetylated histone H4 = assay: Western blotting of hyperacetylated histone H4 in C6 glioma cells; type: cell-based, rat
Procedure: Accumulation of hyperacetylated histone H4 was analyzed in the cell lysates by using Western Blotting and the antibody directed against acetylated histone H4 (Upstate). The C6 glioma cells were seeded at a density of 1×10^6 per 10 cm culture dish. After 24 hours, the cells were treated with 10 μg/mL of NBM-HD-1 or 4 mM sodium butyrate for several hours. The whole-cell lysates were prepared by using denaturing SDS sample buffer and then separated on 15% SDS-polyacrylamide gels. […] The amount of acetylated histones was hardly detectable in untreated C6 glioma cells. The amount of acetylated histone H4 of the cells treated with 4 mM sodium butyrate for 2 hours increased. Sodium butyrate was then removed from the culture medium. After 6 hours, the amount of acetylated histone H4 decreased. The accumulation of acetylated histone H4 increased in the cells treated with NBM-HD-1 for 2 hours. […] The highest histone acetylation appeared at 6 hours after the compound had been removed. […] Because NBM-HD-1 is more hydrophobic than sodium butyrate, NBM-HD-1 can be retained in the cells longer than sodium butyrate and continuously induce the acetylation of histone H4.

[2] = tested on: transgenic mouse model of spinal and bulbar muscular atrophy; conditions: cited from earlier work
[3] = tested on: human breast MCF-7 cancer cells; assay: Growth and morphology of breast cancer MCF-7 cells; type: cell-based
Procedure: The breast cancer MCF-7 cells, were cultured in Dulbecco's modified Eagle's medium (DMEM; Gibco) supplemented with penicillin G, streptomycin sulphate, 0.5 mM of L-glutamine and 10% fetal bovine serum (FBS; Gibco) at 37° C., 5% CO2 and 95% relative humidity. The cells were seeded at a density of 3×10^5 per well of 6-well plates. After 24 hours, the cells were treated with different concentrations of compound NBM-HD-1 and 4 mM sodium butyrate being used as the positive control. The cells were observed after 48 hours and counted after 96 hours. […] In FIG. 8(A), after the cells were incubated with 2.5 μg/mL (FIG. 8(A)-b), 5 μg/mL (FIG. 8(A)-c) and 10 μg/mL (FIG. 8(A)-d) of NBM-HD-1 for 48 hours, the density of MCF-7 cells reduced dramatically in comparison with that of the control group (FIG. 8(A)-a). The morphology of the MCF-7 cells in the experimental group changed in comparison with that in the control group. […] The results of the cell counting (FIG. 8(B)) indicate that, similar to sodium butyrate, NBM-HD-1 inhibits cell growth.
MCF-7 cancer cells were seeded at a density of 3×10^5 per well in 6-well plates. After 24 hours, the cells were treated with different concentrations of compound NBM-HD-2 and 4 mM sodium butyrate being used as the positive control. The cells were observed and counted after 72 hours. […] In FIG. 13(A), after the cells were incubated with 2.5 μg/mL (FIG. 13(A)-c), 5 μg/mL (FIG. 13(A)-d), 7.5 μg/mL (FIG. 13(A)-e) and 10 μg/mL (FIG. 13(A)-f) of NBM-HD-2 for 72 hours, the density of MCF-7 cells reduced dramatically in comparison with that of the control group (FIG. 13(A)-a). The morphology of the MCF-7 cells in the experimental group changed in comparison with that in the control group.
MCF-7 cancer cells were seeded at a density of 3×10^5 per well of 6-well plates. After 24 hours, the cells were treated with different concentrations of compound NBM-HD-3 and 4 mM sodium butyrate, which was being used as the positive control. The cells were observed and counted after 72 hours. […] In FIG. 14(A), after the cells were incubated with 2.5 μg/mL (FIG. 14(A)-c), 5 μg/mL (FIG. 14(A)-d), 7.5 μg/mL (FIG. 14(A)-e) and 10 μg/mL (FIG. 14(A)-f) of NBM-HD-3 for 72 hours, the density of MCF-7 cells reduced dramatically in comparison with that of the control group (FIG. 14(A)-a). The morphology of the MCF-7 cells in the experimental group changed in comparison with that in the control group. […] The results of the cell counting (FIG. 14(B)) indicate that, similar to sodium butyrate, NBM-HD-3 inhibits cell growth.

[4] = compound 2.5, 5, 7.5, 10 μg/mL or 4 mM sodium butyrate, 72 hours

In the case of `CC(/C=C/C(=O)NO)=C\[C@@H](C)C(=O)c1ccc(N(C)C)cc1` [Trichostatin A], the “cyclin D1 degradation” value (cyclin D1) is listed as “induce ubiquitin-dependent cyclin D1 degradation”.
For `CN(C)c1ccc(C(=O)NCCCCCCC(=O)NO)cc1` [M344], the “up-regulation of SMN2 protein expression” value (SMN2 protein) is given as “up to 7 fold”.
In the case of `CCCC(=O)[O-].[Na+]` [sodium butyrate, reference compound], the “growth of 05MG cancer cells” value [1] is reported as “could inhibit the proliferation of 05MG cancer cells”, the “accumulation of hyperacetylated histone H4” value (acetylated histone H4; 10 μg/mL NBM-HD-1 or 4 mM sodium butyrate, 2 hours) is reported as “can increase the accumulation of hyperacetylated histone H4” and the “amount of acetylated histone H4 after removal of the compound” value (acetylated histone H4; after 2 hours treatment and removal from the culture medium, up to 6 hours) is reported as “decreased”. For the same compound, the phenotypic expression [2] was “ameliorates phenotypic expression”, the “growth of MCF-7 cancer cells” value ([3]; NBM-HD-1 2.5, 5, 10 μg/mL or 4 mM sodium butyrate, observed after 48 hours, counted after 96 hours) was “able to inhibit the growth of MCF-7 cells” and the “growth of MCF-7 cancer cells” value [3, 4] was “able to inhibit the growth of MCF-7 cells”.
In the case of `COc1cc2c(c(O)c1CCC(C)(C)O)C(=O)C[C@@H](c1ccc(OC)c(OC)c1C/C=C(\C)CCCC(C)(C)O)O2` [NBM-HD-3], the “morphology of MCF-7 cancer cells” value ([3]; 2.5, 5, 7.5, 10 μg/mL, 72 hours) is reported as “change their morphology” and the “growth of MCF-7 cancer cells” value [3, 4] is reported as “can inhibit the growth of MCF-7 cancer cells in a dose-dependent manner”.
